Where two headings read alike, the source gives them in different places.

Series [1] has as its target T1, AMP nucleosidase (Escherichia coli, UniProt P0AE12). Conditions: purine substrate; cited from earlier work.
Series [2] deals with T2, Purine nucleoside phosphorylase (Bos taurus, UniProt P55859).
T2 sequence (P55859 1-289): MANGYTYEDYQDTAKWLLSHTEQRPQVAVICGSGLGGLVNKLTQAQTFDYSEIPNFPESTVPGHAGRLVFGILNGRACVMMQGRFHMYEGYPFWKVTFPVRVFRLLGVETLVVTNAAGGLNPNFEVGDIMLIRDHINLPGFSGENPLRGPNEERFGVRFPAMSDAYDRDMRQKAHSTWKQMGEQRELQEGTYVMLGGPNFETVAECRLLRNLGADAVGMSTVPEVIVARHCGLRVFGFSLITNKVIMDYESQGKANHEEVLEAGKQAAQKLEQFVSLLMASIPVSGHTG
Description: Kinetic parameters (phosphorolysis) with nitrophenylriboside and purine substrate (Table 1). Details: The E. coli and bovine spleen enzymes tested; from tissue; host or cells: bovine spleen. It is filed as biochemical, bovine. The source says:
(§1) In this Example kinetic parameters for different enzymes were compared using nitrophenylriboside or a purine substrate. […] The E. coli and bovine spleen enzymes tested were ineffective in hydrolysing the substrate. The striking ability of one of the protozoan parasite enzymes to hydrolyse the substrate provides the basis for an assay for the protozoan parasites (see Example 22).

Series [3] concerns the target T3, IU-nucleoside hydrolase (Crithidia fasciculata, UniProt Q27546).
T3 sequence (Q27546 1-315): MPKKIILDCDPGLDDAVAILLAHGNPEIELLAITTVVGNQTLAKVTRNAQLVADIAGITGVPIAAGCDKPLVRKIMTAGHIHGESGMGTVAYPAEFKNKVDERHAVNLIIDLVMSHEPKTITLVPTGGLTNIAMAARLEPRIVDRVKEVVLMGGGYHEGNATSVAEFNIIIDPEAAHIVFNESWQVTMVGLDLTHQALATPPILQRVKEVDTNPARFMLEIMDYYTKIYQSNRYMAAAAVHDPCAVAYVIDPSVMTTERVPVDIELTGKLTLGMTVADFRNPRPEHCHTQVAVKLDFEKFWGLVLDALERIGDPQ
Put plainly: Kinetic parameters with nitrophenylriboside and purine substrate (Table 1). Format: biochemical.
Description: as §1

For series [4], the target named is T4, IAG-nucleoside hydrolase (Trypanosoma brucei, UniProt Q57ZL6).
T4 sequence (Q57ZL6 1-327): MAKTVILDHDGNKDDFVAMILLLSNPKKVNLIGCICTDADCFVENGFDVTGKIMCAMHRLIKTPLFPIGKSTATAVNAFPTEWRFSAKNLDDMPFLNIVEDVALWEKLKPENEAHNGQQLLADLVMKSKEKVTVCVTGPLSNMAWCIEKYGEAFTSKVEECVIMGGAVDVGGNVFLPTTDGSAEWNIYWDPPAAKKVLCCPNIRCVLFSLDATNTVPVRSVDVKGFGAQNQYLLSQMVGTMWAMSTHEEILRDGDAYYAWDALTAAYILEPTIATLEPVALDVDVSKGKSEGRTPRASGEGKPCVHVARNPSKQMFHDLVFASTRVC
Described as above. Format: biochemical.
Description: as §1

Series [5] deals with GI-nucleoside hydrolase. The description is as above. It is filed as biochemical, Crithidia fasciculata.
Description: as §1

Series [6] concerns the target T3, IU-nucleoside hydrolase. Put plainly: Comparison of β-D-ribofuranoside substrates with IU-nucleoside hydrolase (Table 3). It is filed as biochemical. On the procedure: (§2) The enzymes used were highly purified samples from Crithidia fasciculata (IU-nucleoside hydrolase) and Trypanosoma brucei brucei (IAG-nucleoside hydrolase), available as stock solutions of approximately 20 mg protein/mL.
(§3) Each reaction was conducted in a quartz cuvette with a 1 cm path length, placed in the observation chamber of a UV spectrophotometer, and in a total reaction volume of 600 μL. The temperature was adjusted by use of a circulating water bath, set so that the cuvette temperature equilibrated to 30° C. in about 5 minutes.
(§4) The β-D-ribofuranoside substrates were dissolved in aqueous buffer: 50 mM CHES for reactions at pH 10, 50 mM HEPES for reactions at pH 8. […] For the remaining reactions catalysed by IAG hydrolase, a single substrate concentration of between 100 and 300 μM was used.
(§5) The absorbance of each reaction mixture was monitored at or near the absorption maximum for the phenolic aglycon (as shown in Table 3). Monitoring began 5-10 minutes before the enzyme was added to determine if the substrate was stable under the reaction conditions.
(§6) Data were fitted to the Michaelis-Menton equation using kaleidagraph, and the resulting kinetic parameters along with other relevant data are summarized in Table 3.

The test system of series [7] is blood from mice infected with Trypanosoma cruzi. Put plainly: Rate of hydrolysis of nitrophenyl riboside with control or infected mouse blood. Format: biochemical. Conditions: for rate of hydrolysis: 0.24 mM substrate, 50 mM HEPES pH 8.0, 30° C., 400 nm. The procedure: The utility of nitrophenylriboside as a substrate for detecting protozoan infections using the presence of nucleoside hydrolases was tested using blood from mice infected with Trypanosoma cruzi, the causitive agent of Chagas disease (Table 2). […] The values obtained from the assay from the infected mice were strikingly elevated above those of the uninfected controls.

Series [8] concerns the target T1, AMP nucleosidase. Put plainly: Kinetic parameters with nitrophenylriboside 5-phosphate and purine substrate (Table 1). It is filed as biochemical, E coli. As to conditions: summary of Table 1.
Description: as §1

The subject of another series is T. vaginalis. Description: Hydrolysis of substrates by T. vaginalis extract. Format: biochemical. Conditions: Triton X-100 extract; determined as in Example 24. On the procedure:
T. vaginalis was grown for 2 days in TYM medium, harvested, and washed. […] The ability of the extract to hydrolyse substrates was determined as in Example 24. For 4-nitrophenyl β-D-ribofuranoside, the activity was 165 nmoles.min^−1 per 10^8 cells, corresponding to an activity for the enzyme of 9 nmoles.min^−1.(mg protein)^−1. For 4-pyridyl β-D-ribofuranoside, the activity was 74 nmoles.min^−1 per […] corresponding to an activity for the enzyme of 4 nmoles.min^−1.(mg protein)^−1.

For series [9], the system named is Giardia intestinalis (Portland 1 strain). Description: Hydrolysis of substrates by Giardia intestinalis supernatants. Format: biochemical. Conditions: 0.24 mM substrate, 50 mM HEPES pH 8. The procedure: Giardia intestinalis (Portland 1 strain) was grown for 2 days in TYI-33 medium supplemented with 5 mM arginine, harvested and washed. A suspension containing 2.91×10^8 cells of Giardia intestinalis in 1 mL of aqueous HEPES buffer (40 mM. pH 7) was mixed with 1 mL of aqueous HEPES buffer (40 mM, pH 7) containing 0.1 mM protease inhibitor E-64 and sonicated (Branson sonicator, duty cycle 40, output 2.5), for 2-3 min in ice. The suspension was then centrifuged in a Beckman microfuge for 10 mins at 4° C., and the supernatant decanted.
A second suspension of 2.91×10^8 cells of Giardia intestinalis in 1 mL of aqueous HEPES buffer (40 mM, pH 7) was mixed with 1 mL of 0.5% aqueous Triton X-100, left at 4° C. overnight, and the supernatant was decanted.
Aliquots (between 2 and 100 μL) of each of these supernatants were made up to a volume of 1 mL of water containing 50 mM HEPES buffer at pH 8, 0.24 mM 4-nitrophenyl β-D-ribofuranoside or 4-pyridyl β-D-ribofuranoside. The release of the aglycon was monitored by absorption spectrometry at 400 nm or 253 nm, respectively.
Protein was determined by Lowry method (ie Folin reaction).

In series [10] the target is T4, IAG-nucleoside hydrolase. Put plainly: Comparison of β-D-ribofuranoside substrates with IAG-nucleoside hydrolase (Table 3). It is filed as biochemical. As to conditions: for IAG NH rate: at 200 μM substrate. On the procedure: as §2, §3, §4, §5, §6
Series [11] in a line: Stability of substrate under the reaction conditions before enzyme was added. Format: physicochemical. As to conditions: pH 10, 30° C., monitored 5-10 minutes before the enzyme was added. The procedure: as §5
Series [12] relates to GI-nucleoside hydrolase. As to conditions: purine substrate; cited from earlier work.
Series [13] deals with T3, IU-nucleoside hydrolase. Conditions: purine substrate; cited from earlier work.
For series [14], the target named is T2, Purine nucleoside phosphorylase. Further details: bovine spleen enzymes tested; from tissue; host or cells: bovine spleen. As to conditions: purine substrate; cited from earlier work.
Series [15] deals with T4, IAG-nucleoside hydrolase. Conditions: purine substrate; cited from earlier work.
Substrate in series [16]: O=[N+]([O-])c1ccc(O[C@@H]2O[C@H](CO)[C@@H](O)[C@H]2O)cc1
Description: Kinetic parameters with nitrophenylriboside and purine substrate (Table 1). As to conditions: other: nitrophenylriboside as substrate, pH 8.0 in 50 mM HEPES, 30° C. Format: biochemical, Trypanosoma brucei brucei.
Description: as §1

Substrate in series [17]: OC[C@H]1O[C@@H](Oc2ccncc2)[C@H](O)[C@@H]1O
Put plainly: Comparison of β-D-ribofuranoside substrates with IAG-nucleoside hydrolase (Table 3). Format: biochemical, Trypanosoma brucei brucei. Conditions: other: At pH 10, 30.0 °C. The procedure: as §2, §3, §4, §5, §6

Substrate in series [18]: O=[N+]([O-])c1ccc(O[C@@H]2O[C@H](CO)[C@@H](O)[C@H]2O)cc1
The description is as above. Format: biochemical, Trypanosoma brucei brucei. Conditions: other: At pH 10, 30.0 °C. The procedure:
as §2, §3, §4, §5, §6

Where [19] appears, read: kcat/Km for nitrophenylriboside to that for inosine.
[20] abbreviates: nitrophenylriboside as substrate, pH 8.0 in 50 mM HEPES, 30° C.
Setting [21] is: listed as 2-(5-nitropyridyl) riboside.

T1 sequence (P0AE12 whole entry): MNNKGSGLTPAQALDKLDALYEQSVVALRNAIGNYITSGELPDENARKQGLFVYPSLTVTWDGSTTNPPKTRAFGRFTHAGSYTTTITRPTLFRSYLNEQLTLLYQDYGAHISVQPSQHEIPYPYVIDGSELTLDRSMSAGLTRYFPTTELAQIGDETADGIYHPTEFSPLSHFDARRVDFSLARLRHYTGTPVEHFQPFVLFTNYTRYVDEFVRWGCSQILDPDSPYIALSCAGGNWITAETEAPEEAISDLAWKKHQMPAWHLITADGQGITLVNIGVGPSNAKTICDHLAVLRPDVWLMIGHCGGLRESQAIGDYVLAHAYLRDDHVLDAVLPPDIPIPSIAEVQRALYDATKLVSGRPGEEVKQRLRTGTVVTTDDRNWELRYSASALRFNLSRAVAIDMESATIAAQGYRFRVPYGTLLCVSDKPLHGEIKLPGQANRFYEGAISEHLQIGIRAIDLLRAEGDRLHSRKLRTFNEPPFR

For the molecule `Nc1ncnc2c1ncn2[C@@H]1O[C@H](COP(=O)(O)O)[C@@H](O)[C@H]1O` [AMP], at AMP nucleosidase [1], the Km – broadly, the concentration of substrate that gives half-maximal velocity – was 150 µM and the kcat (as a rule, the maximal rate divided by the concentration of active sites) was 27 s⁻¹.

`O=[N+]([O-])c1ccc(O[C@@H]2O[C@H](CO)[C@@H](O)[C@H]2O)cc1` [Example 1, p-nitrophenyl β-D-ribofuranoside]: the kcat/Km ratio in [2] (setting [19]) was 1 × 10^−6; on IU-nucleoside hydrolase [3] (setting [19]), 54; at IAG-nucleoside hydrolase [4] (setting [19]) it was 8 × 10^−4; in the series with GI-nucleoside hydrolase [5] (kcat/Km for nitrophenylriboside to that for guanosine), 4 × 10^−5. Moreover, the “substrate quality in words” value in series [2] (summary of Table 1) was “ineffective”; on IU-nucleoside hydrolase [3] (summary of Table 1), “good substrate”; on IAG-nucleoside hydrolase [4] (summary of Table 1), “relatively poor”; on IU-nucleoside hydrolase [6] it was “good substrates”; on IU-nucleoside hydrolase [6] (listed as p-nitrophenylriboside), “particularly good substrate”; on AMP nucleosidase [8] it was “ineffective”. The Km in the series with GI-nucleoside hydrolase [5] (setting [20]) was determined as 468 µM. Further, the kcat with GI-nucleoside hydrolase [5] (setting [20]) was found to be 0.07 s⁻¹. The “detection of nucleoside hydrolase in words” value in series [7] (blood lysate prepared from one microliter of infected blood) is given as “readily detects the presence of the nucleoside hydrolase”. The rate of hydrolysis is on record as 4.6 ± 0.5 (3) pmol/min/mg in series [7] (mouse blood infected, T cruzi var Brazil); 3.9 ± 0.5 (4) pmol/min/mg in series [7] (mouse blood infected, T cruzi var Tulahuen); 0.7 ± 0.8 (11) pmol/min/mg in series [7] (uninfected control mouse blood). For the same molecule, the “activity for the enzyme” value in the series with T. vaginalis is reported as 9 nmoles.min^−1.(mg protein)^−1; in [9] (protein by Lowry method) it was 70 nmoles.min^−1.(mg protein)^−1. Also, the activity per cells is on record as 165 nmoles.min^−1 per 10^8 cells in the series on T. vaginalis and 470 nmoles.min^−1 per 10^8 cells in series [9]. The “IAG NH rate” value on IAG-nucleoside hydrolase [10] (pH 10.0) was 0.05 min⁻¹.

Take `O=[N+]([O-])c1ccc(O[C@@H]2O[C@H](CO)[C@@H](O)[C@H]2O)nc1` [Example 13, 2-(5-nitropyridyl) β-D-ribofuranoside]: the “substrate quality in words” value on IU-nucleoside hydrolase [6] is “good substrates”; on IU-nucleoside hydrolase [6] (setting [21]) it was “lower activity”; on IAG-nucleoside hydrolase [10] it was “good substrates”; at IAG-nucleoside hydrolase [10] (setting [21]), “substantially greater activity”. At IU-nucleoside hydrolase [6] (At pH 10, 30° C.), the “IU NH kcat” value turned out to be 100 s⁻¹. Further, the Km on IU-nucleoside hydrolase [6] (At pH 10, 30° C., read-out: IU NH Km) amounted to 122 µM. Moreover, in [11], the “hydrolysis in the absence of enzyme” value was “hydrolysis observed in the absence of enzyme”. For the same molecule, the “IAG NH rate” value at IAG-nucleoside hydrolase [10] (pH 8.0) and at IAG-nucleoside hydrolase [10] (pH 10.0) was greater than 100 min⁻¹ each time.

As for `Nc1nc2c(ncn2[C@@H]2O[C@H](CO)[C@@H](O)[C@H]2O)c(=O)[nH]1` [guanosine], in the series with GI-nucleoside hydrolase [12], the Km is 77 µM and the catalytic constant (kcat) was 231 s⁻¹.

For the molecule `OC[C@H]1O[C@@H](n2cnc3c(O)ncnc32)[C@H](O)[C@@H]1O` [inosine], the kcat at IU-nucleoside hydrolase [13] was 28 s⁻¹; in series [14], 12 s⁻¹; on IAG-nucleoside hydrolase [15] it was 34 s⁻¹. The Km in [14] is 19 µM; at IAG-nucleoside hydrolase [15], 18 µM.

B1: IAG-nucleoside hydrolase (Trypanosoma brucei brucei TREU927) (protein)
chain: T4 sequence (Q57ZL6 1-327)
As to B1, in series [16], the Michaelis constant (Km) came out at 560 µM; the catalytic constant (kcat) stood at 0.82 s⁻¹; the kcat/Km (as a rule, the second-order rate constant that governs catalysis at low substrate concentration) was 1500 M⁻¹ s⁻¹. For the same molecule, in [17], the Km was 306 µM and the kcat was determined as 12 s⁻¹. For the same molecule, in series [18], the Michaelis constant (Km) is 529 µM and the turnover number (kcat) was found to be 0.00317 s⁻¹.

Values taken from patent US6764829B2, “Nucleoside hydrolase and nucleoside phosphorylase detection kits, dipsticks and substrates” (Albert Einstein College of Medicine of Yeshiva University, priority 1996, dated 2004).
